Measurements reported in patent publication US7078063B2, “Water soluble extract from plant of Solanum genus and the preparation process thereof, and pharmaceutical composition containing the water soluble extract” (G & E Herbal Biotechnology Co., LTD., priority 2003, dated 2006).

Key:
H441 = assay: MTS tetrazolium salt cytotoxicity assay; type: cell-based, human; settings: 12 hrs
Procedure: Hep3B was incubated in Dulbecco's Modified Eagle's medium (DMEM), while H441 and MCF-7 were incubated in RPMI-1640, both of the media containing 10% fetal bovine serum and 40 mg/L gentamycin.
The cytotoxicity of cancer cells was determined using tetrazolium salt assay (MTS, Mosmann. T., 1983, Immunol. Meth., 65, 55–63), which was conducted for the calorimetric determination of cell viability according to the manufacturer's procedures (CellTiter 96™ AQ, Promega, Madison, USA).
Cells were seeded at 1×10^4 cells/well in a 96-well plate and incubated in 5% CO2 incubator at 37° C. for at least 16 hrs. The water-soluble extract from Solanum incanum L. was dissolved in sterile injection water to give different test concentrations, which were added to each cancer-cell incubating medium in the well, and allowed to react for 12 hrs. 20 μl MTS was then added to each well, and the solution was allowed to react for 3 hrs. Upon completion of the reaction, absorbency in each well was determined at 490 nm by using ELISA reader 312e, Bio-TEK. Each value was expressed as means ±SD from three experiments.
Cytotoxicity was determined by MTS tetrazolium salt assay disclosed in Pharmacological assay 1. […] Data were expressed as means ±SD from three experiments.

dissolving in water = type: physicochemical
[1] = dried powders, without being pre-treated with DMSO
[2] = purified from the water-soluble extract by HPLC

SMILES | inhibiting the growth of H441 (H441) | dissolving in water (dissolving in water; [1]) | dissolving in water (dissolving in water; [2])
C[C@@H]1CC[C@@]2(NC1)O[C@H]1C[C@H]3[C@@H]4CC=C5C[C@@H](O[C@@H]6O[C@H](CO)[C@@H](O[C@@H]7O[C@@H](C)[C@H](O)[C@@H](O)[C@H]7O)[C@H](O)[C@H]6O[C@@H]6O[C@@H](C)[C@H](O)[C@@H](O)[C@H]6O)CC[C@]5(C)[C@H]4CC[C@]3(C)[C@H]1[C@@H]2C [solamargine] | effectively inhibited | could not dissolve in water | directly dissolved in water
C[C@@H]1CC[C@@]2(NC1)O[C@H]1C[C@H]3[C@@H]4CC=C5C[C@@H](O[C@@H]6O[C@H](CO)[C@H](O)[C@H](O[C@@H]7O[C@H](CO)[C@@H](O)[C@H](O)[C@H]7O)[C@H]6O[C@@H]6O[C@@H](C)[C@H](O)[C@@H](O)[C@H]6O)CC[C@]5(C)[C@H]4CC[C@]3(C)[C@H]1[C@@H]2C [solasonine] | effectively inhibited | could not dissolve in water | directly dissolved in water
